# Measured values reported in PubChem BioAssay AID1996.
# Several values for one entry are separate records, joined by “and”; a condition that tells them apart may be missing. Equal values may be shown once.
# Settings: buffer; pH 7.4; 200.0 µM
row,Compound,solubility kinetic
1,O=C(Cc1ccc(Br)cc1)OCC(=O)N1CCCCCC1,> 53.1 µg/mL
2,CCSc1ccc(C(=O)NCC(=O)O)cc1,> 35.9 µg/mL
3,NC(=NC1CCCCC1)NS(=O)(=O)c1ccccc1,> 42.2 µg/mL
4,O=c1c2ccccc2[se]n1-c1ccccc1,13.6 µg/mL and 6.6 µg/mL
5,C#CCOc1ccc(/C=C2/C(=O)ON=C2C)cc1Br,42.7 µg/mL
6,Cc1nc(C)c(N)c(=O)[nH]1.Cl,> 26.3 µg/mL
7,O=C(c1ccccc1)C1CCN(C(=O)c2cccs2)CC1,38.9 µg/mL
8,COc1ccc(-n2nc3c(c2NC(C)=O)CS(=O)(=O)C3)cc1,> 48.2 µg/mL
9,O=C1CNC(=S)N1Cc1ccc(Cl)cc1,> 36.1 µg/mL
10,CC(OC(=O)c1ccco1)C(=O)NC1CCCC1 (stereo not given),> 37.7 µg/mL
11,CCOC(=O)CCNCc1ccc(F)cc1.Cl,> 39.3 µg/mL
12,C=CCOc1ccc(C2NC(=O)c3ccccc3O2)cc1 (stereo not given),1.3 µg/mL
13,CN1CCCC(OC(=O)c2ccccc2Br)C1.Cl (stereo not given),> 50.2 µg/mL
14,COc1cccc(N2CCN(C(=O)CCNS(=O)(=O)c3ccc(F)c(F)c3)CC2)c1,56.7 µg/mL
15,Cc1ccc(OC(=O)c2ccc(Cl)c([N+](=O)[O-])c2)cn1,42.8 µg/mL
16,NC1=NC(=O)C(Cc2ccc(F)cc2)S1 (stereo not given),22 µg/mL
17,c1ccc2nc3ccccc3nc2c1,12.3 µg/mL
18,COc1ccnc2c1c(=O)n(Cc1c(F)cccc1Cl)c(=O)n2C,9.8 µg/mL
19,O=C(CCCN1C(=O)c2ccccc2C1=O)Nc1ccccc1,> 46.3 µg/mL
20,COC(=O)c1c(C)oc(C)c1S(=O)(=O)Nc1ccc(C(C)C)cc1,7.2 µg/mL

row,Compound,solubility kinetic
1,CC(C)(C)N1C(=O)NC(=O)/C(=C\c2ccc3c(c2)CCN3CCCCl)C1=O,38 µg/mL
2,O=C(COC(=O)c1ccc2ncsc2c1)Nc1ccccc1Cl,4 µg/mL
3,Cc1occc1C(=O)Nc1ccc(OCc2ccccc2)cc1,2.1 µg/mL
4,CC(C)[C@H](NC(=O)OCc1ccccc1)C(=O)OCC(=O)c1ccccc1,16.1 µg/mL
5,Brc1ccc2c(c1)[C@H]1OCC[C@H]1[C@@H](c1cccs1)N2,1.4 µg/mL
6,COC(=O)/C(=N\OCc1ccc(C#N)cc1)c1c(C)nn(C)c1C,> 49 µg/mL
7,O=C(CCCn1c(=O)[nH]c2ccccc2c1=O)Nc1ccc(F)cc1,7.7 µg/mL
8,O=C(NCc1ccco1)/C(=C/c1ccc(Cl)cc1)NC(=O)c1ccco1,4 µg/mL
9,O=C(c1cc2ccccc2s1)N1CCOCC1,> 37.1 µg/mL
10,O=C(COc1ccccc1Cl)Nc1ccc2c(c1)C(=O)NC2=O,< 0.4 µg/mL
11,COCc1cc(C)nc(SCc2ccccc2)c1C#N,3.4 µg/mL
12,O=c1c2[nH]c3ccc(F)cc3c2ncn1Cc1ccncc1,3.3 µg/mL
13,CC(=O)Nc1cccc(NCC(=O)Nc2cc(S(=O)(=O)N3CCCCC3)ccc2Cl)c1,35.8 µg/mL
14,Cc1cc(Cl)ccc1-n1c(-c2cccnc2)n[nH]c1=S,> 45.4 µg/mL
15,Cc1ccc(CNc2cc(C(=O)O)ccc2C)s1,> 39.2 µg/mL
16,Cl.c1ccc(NCc2cccc3ccccc23)nc1,4.1 µg/mL
17,CC1CCN(Cc2nc(Cl)c3c4c(sc3n2)CCC4)CC1,27.4 µg/mL
18,COc1ccc(C(=O)c2cnc[nH]2)cc1,> 30.3 µg/mL
19,Cc1ccc(C(C[N+](=O)[O-])Sc2ccc(N)cc2)cc1 (stereo not given),21.4 µg/mL
20,O=C1C(CCS(=O)c2ccccc2)C(=O)N(c2ccccc2)N1c1ccccc1 (stereo not given),> 60.7 µg/mL

row,Compound,solubility kinetic
1,Cc1ccccc1C(=O)N1CCC(C(=O)Oc2ccc(C#N)cc2)CC1,> 52.3 µg/mL
2,CC1CC(C)CN(C(=O)C(C)N2CCN(S(=O)(=O)c3ccccc3F)CC2)C1 (stereo not given),51.7 µg/mL
3,COc1ccc(NC(=O)CSc2ncnc3sc(C)cc23)cc1,1.2 µg/mL
4,Cc1ccccc1NC(=O)CN1C(=O)CSc2ccccc21,3.6 µg/mL
5,O=S(=O)(Nc1ccccc1Br)c1cccs1,> 47.7 µg/mL
6,Cc1ccc(OCC(=O)NCCCNC(=O)c2ccco2)cc1C,> 49.6 µg/mL
7,Cc1ccc(C)c(Oc2cc(F)nc(N)n2)c1,> 35 µg/mL
8,CC(C)NC(=O)C1c2ccccc2Oc2ccccc21,1.1 µg/mL
9,O=C(CN1c2cccc3cccc(c23)S1(=O)=O)Nc1c(F)c(F)c(F)c(F)c1F,1.3 µg/mL
10,COCCNC(=S)c1ccc(Br)cc1,34.5 µg/mL
11,O=C(O)/C=C\C(=O)Nc1ccccc1N1CCN(c2ccccc2)CC1,52 µg/mL
12,COc1ccc(C(C)=O)cc1CSc1nnc(-c2ccncc2)n1C,> 53.2 µg/mL
13,CC(C)(C)NCc1ccc(OCc2cccs2)cc1.Cl,36.8 µg/mL
14,Cc1cnc(C(=O)OCC(=O)N=c2sccn2Cc2ccccc2Cl)cn1,55.2 µg/mL
15,O=[N+]([O-])c1ccc2c(c1)nc1n2CCN(c2ccccc2)C1,6.8 µg/mL
16,COc1cccc(C(=O)Nc2cc(C)nn2-c2ccccc2)c1OC,> 50.6 µg/mL
17,Cc1cc(C)c(S(=O)(=O)NCc2cccs2)cc1C,36.5 µg/mL
18,COc1ccc(Cl)cc1NC(=O)C(C)N1CCc2ccccc21 (stereo not given),1.1 µg/mL
19,CCOc1ccccc1C(=O)Nc1ccc(C(=O)c2ccccc2)cc1,< 0.7 µg/mL
20,Cc1ccc(C(=O)CCC(=O)NC2=NCCS2)cc1,10.8 µg/mL
